Where only a bound is given, the exact number is not on record here.

A word on the IC50: it is the concentration at which inhibition is half-maximal.

This test deals with T1, human MRGPRX4 (Homo sapiens, UniProt Q96LA9).
T1 construct: expressed in transfected cells
T1 sequence (Q96LA9 whole entry): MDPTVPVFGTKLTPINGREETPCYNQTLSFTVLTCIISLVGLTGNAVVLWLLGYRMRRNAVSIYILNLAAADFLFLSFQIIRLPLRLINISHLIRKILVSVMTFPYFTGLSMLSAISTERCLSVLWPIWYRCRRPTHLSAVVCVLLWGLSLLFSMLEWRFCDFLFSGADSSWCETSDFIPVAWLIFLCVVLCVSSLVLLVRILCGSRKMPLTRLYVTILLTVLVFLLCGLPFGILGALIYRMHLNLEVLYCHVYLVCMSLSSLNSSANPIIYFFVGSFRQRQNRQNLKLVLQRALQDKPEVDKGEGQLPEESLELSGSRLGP
Description: MRGPRX4 antagonist calcium (FLIPR, Fluo-8) assay in HEK293T cells stably expressing human MRGPRX4, agonist 0.2 μM deoxycholic acid-3-phosphoric acid. It is filed as cell-based. As to conditions: HEK293T cells stably expressing human MRGPRX4; antagonist mode; top conc. 30 μM, ten 3-fold serial dilutions; C may also mean <40% inhibition at 2 μM; read-out: Antagonist activity (IC50 class). How it is done:
HEK293T cells stably expressing human MRGPRX4 were cultured in DMEM medium supplements with 10% FBS, 100 U/mL penicillin-streptomycin, 20 mM HEPES and 1 μg/mL puromycin at 37° C. with 5% (v/v) CO2. One day before test, the cells were detached using TrypLE™ Express and counted using cell counter. In a 384-well plate cells were seeded at a density of 20,000 cells/well in 20 uL/well planting medium (DMEM medium supplements with 5% FBS, 100 U/mL penicillin-streptomycin and 20 mM HEPES), and incubated overnight at 37° C. with 5% (v/v) CO2. On the day of experiments, the dye solution, prepared following the manufacture's instruction of the Screen Quest™ Fluo-8 No Wash Calcium Assay Kit, was added to each well (20 μL/well) of the cell plate. The cell plate was incubated at 25° C. for 1 hour. Test compounds in different doses were transferred to the cell plate by FLIPR and the plate was kept in the dark at 25° C. for 30 minutes. The agonist solution, 0.2 μM of deoxycholic acid-3-phosphoric acid in assay buffer, was added to each well of the plate. The plate was read for 160 sec with 1 sec interval to obtain data of antagonist mode in FLIPR. For various compounds, IC50 values were calculated by fitting % inhibition against log of compound concentrations (top conc. 30 μM, ten 3-fold serial dilutions) with Hill equation using XLfit. […] Those skilled in the art appreciate that IC50 of various compounds can be assessed in accordance with the present disclosure.
As to `CN1c2cc(C(F)(F)F)ccc2CC1c1ccc(C(=O)O)cc1` (centres unmarked) [Example 40], the half-inhibitory concentration (IC50) was greater than 10 µM. Regarding `O=C(O)c1ccc(C2Cc3ccc(C(F)(F)F)cc3N2)cc1` (centres unmarked) [Example 41], the half-inhibitory concentration (IC50) is greater than 10 µM. As for `O=C(O)c1cc(-c2nc3cc(C(F)(F)F)c(Cl)cc3o2)ccc1F` [Example 42], the half-maximal inhibitory concentration (IC50) was greater than 10 µM.

In the case of `O=C(O)c1cccc(-c2nc3cc(C(F)(F)F)cc(Cl)c3o2)c1` [Example 43], the IC50 was greater than 10 µM. Regarding `O=C(O)c1ccc(-c2nc3c(C(F)(F)F)c(F)ccc3o2)cc1F` [Example 44], the 50% inhibitory concentration (IC50) is greater than 10 µM. For `O=C(O)c1cc(-c2nc3c(C(F)(F)F)c(Cl)ccc3o2)ccc1F` [Example 45], the concentration for half-maximal inhibition (IC50) was greater than 10 µM. To `O=C(O)c1cc(F)cc(-c2nc3cc(C(F)(F)F)c(Cl)cc3o2)c1` [Example 46] belongs greater than 10 µM; to `O=C(O)c1ccc(-c2nc3cc(C(F)(F)F)cc(Cl)c3o2)cc1` [Example 47], greater than 10 µM. With `O=C(O)c1cc(Br)cc(-c2nc3cc(C(F)(F)F)c(Cl)cc3s2)c1` [Example 48], the IC50 was greater than 10 µM. To `O=C(O)c1cccc(-c2cc3cc(C(F)(F)F)ccc3o2)c1` [Example 50] belongs greater than 10 µM; to `O=C(O)c1cccc(-c2cc3ccc(C(F)(F)F)cc3o2)c1` [Example 51], greater than 10 µM; to `O=C(O)c1cccc(C2Cc3cc(C(F)(F)F)ccc3O2)c1F` (centres unmarked) [Example 52], less than 1 µM. Consider `O=C(O)c1cc(C2Cc3cc(C(F)(F)F)ccc3O2)ccc1F` (centres unmarked) [Example 53], for which the IC50 lay within 1 to 10 µM. Turning to `O=C(O)c1ccc(F)c(C2Cc3cc(C(F)(F)F)ccc3O2)c1` (centres unmarked) [Example 54], the half-maximal inhibitory concentration (IC50) was greater than 10 µM. To `O=C(O)c1ccc(C2Cc3cc(C(F)(F)F)ccc3O2)cc1F` (centres unmarked) [Example 55] belongs greater than 10 µM.

In the case of `COc1c(C(=O)O)cccc1C1Cc2cc(C(F)(F)F)ccc2O1` (centres unmarked) [Example 56], the IC50 is greater than 10 µM. To `O=C(O)c1cc(F)cc(C2Cc3cc(C(F)(F)F)ccc3O2)c1` (centres unmarked) [Example 57] belongs 1 to 10 µM. To `COc1cc(C(=O)O)cc(C2Cc3cc(C(F)(F)F)ccc3O2)c1` (centres unmarked) [Example 58] belongs greater than 10 µM; to `O=C(O)c1ccc(C2Cc3ccccc3O2)cc1` (centres unmarked) [Example 59], greater than 10 µM. The same measure for `O=C(O)c1cccc(C2Cc3cc(C(F)(F)F)ccc3O2)c1` (centres unmarked) [Example 60]: 1 to 10 µM. As to `O=C(O)c1ccc(C2Cc3cc(C(F)(F)F)ccc3O2)cc1` (centres unmarked) [Example 61], the IC50 is greater than 10 µM. To `O=C(O)c1cc(Cl)cc(C2Cc3cc(C(F)(F)F)ccc3O2)c1` (centres unmarked) [Example 62] belongs 1 to 10 µM. To `O=C(O)c1cccc(C2Cc3cc(Cl)ccc3O2)c1F` (centres unmarked) [Example 63] belongs 1 to 10 µM; to `O=C(O)c1cc(-c2ccccc2)cc(C2Cc3cc(C(F)(F)F)ccc3O2)c1` (centres unmarked) [Example 64], greater than 10 µM; to `O=C(O)c1cc(C2CCCC2)cc(C2Cc3cc(C(F)(F)F)ccc3O2)c1` (centres unmarked) [Example 65], greater than 10 µM. On to `O=C(O)c1cc(C2CC2)cc(C2Cc3cc(C(F)(F)F)ccc3O2)c1` (centres unmarked) [Example 66], for which the IC50 fell in the range of 1 to 10 µM. The same measure for `Cc1cc(C(=O)O)cc(C2Cc3cc(C(F)(F)F)ccc3O2)c1` (centres unmarked) [Example 67]: 1 to 10 µM; for `Cc1c(C(=O)O)cccc1C1Cc2cc(C(F)(F)F)ccc2O1` (centres unmarked) [Example 68]: greater than 10 µM; for `Cn1cc(-c2cc(C(=O)O)cc(C3Cc4cc(C(F)(F)F)ccc4O3)c2)cn1` (centres unmarked) [Example 69]: greater than 10 µM. The same measure for `CCOP(=O)(OCC)c1ccc(-c2cc3ccc(C(F)(F)F)cc3n2C)cc1` [Example 70, diethyl(4-(1-methyl-6-(trifluoromethyl)-1H-indol-2-yl)phenyl)phosphonate]: greater than 10 µM.

As for `Cn1c(-c2ccc(P(=O)(O)O)cc2)cc2ccc(C(F)(F)F)cc21` [Example 71], the IC50 is greater than 10 µM.

In the case of `CCOP(=O)(O)c1ccc(-c2cc3ccc(C(F)(F)F)cc3n2C)cc1` [Example 72], the IC50 is greater than 10 µM.

Take `NC(=O)c1cccc(C2Cc3cc(C(F)(F)F)ccc3O2)c1F` (centres unmarked) [Example 73]: the half-maximal inhibitory concentration (IC50) was greater than 10 µM.

`CNC(=O)c1cccc(C2Cc3cc(C(F)(F)F)ccc3O2)c1F` (centres unmarked) [Example 74]: the IC50 was greater than 10 µM.

Turning to `CN(C)C(=O)c1cccc(C2Cc3cc(C(F)(F)F)ccc3O2)c1F` (centres unmarked) [Example 75], the concentration for half-maximal inhibition (IC50) is greater than 10 µM. The same measure for `O=C(O)c1cccc(C2CCc3cc(C(F)(F)F)ccc3O2)c1F` (centres unmarked) [Example 76]: greater than 10 µM. Regarding `O=C(O)c1cccc(C2Cc3c(cccc3C(F)(F)F)O2)c1F` (centres unmarked) [Example 77], the concentration for half-maximal inhibition (IC50) was greater than 10 µM.

For `O=C(O)c1cccc(C2Cc3cc(OC(F)(F)F)ccc3O2)c1F` (centres unmarked) [Example 78], the IC50 lay in the range of 1 to 10 µM.

For `O=C(O)c1cccc(C2Cc3cc(F)ccc3O2)c1F` (centres unmarked) [Example 79], the IC50 is greater than 10 µM.

`N#Cc1ccc2c(c1)CC(c1cccc(C(=O)O)c1F)O2` (centres unmarked) [Example 80]: the IC50 was greater than 10 µM. To `O=C(O)c1cccc(C2Cc3cc(F)c(F)cc3O2)c1F` (centres unmarked) [Example 81] belongs greater than 10 µM; to `O=C(O)c1cccc(C2Cc3cc(F)cc(F)c3O2)c1F` (centres unmarked) [Example 82], greater than 10 µM; to `O=C(O)c1cccc(C2Cc3cccc(C(F)(F)F)c3O2)c1F` (centres unmarked) [Example 83], greater than 10 µM. The same measure for `O=C(O)c1cccc(C2Cc3cc(F)cc(Cl)c3O2)c1F` (centres unmarked) [Example 84]: greater than 10 µM. To `O=C(O)c1c(F)ccc(C2Cc3cc(C(F)(F)F)ccc3O2)c1F` (centres unmarked) [Example 85] belongs greater than 10 µM; to `CC1(c2cccc(C(=O)O)c2F)Cc2cc(C(F)(F)F)ccc2O1` (centres unmarked) [Example 86], 1 to 10 µM. Turning to `O=C(O)c1cccc(C2Cc3cc(C(F)(F)F)ccc3O2)c1F` (centres unmarked) [Example 87], the IC50 was greater than 10 µM.

These data come from patent US20250326777A1, “COMPOUNDS, COMPOSITIONS AND METHODS THEREOF” (HEPAITECH (BEIJING) BIOPHARMA TECHNOLOGY CO., LTD., priority 2022, published 2025).
